Experiment [1] concerns tyrosinase-related protein 1 (TYRP1). As to the kind of experiment: Expression of melanin-related gene TYRP1 in skin, clinical trial in healthy subjects. Type of experiment: in vivo, human. The note with it: back skin mRNA, next day versus day before administration.
Experiment [2] has as its system Male C57BL/6JHamSlc-Ay/+ mice. As to the kind of experiment: Effect on darkening of mouse body hair. Type of experiment: in vivo. The note with it: day 6. On the procedure:
Male C57BL/6JHamSlc-Ay/+ mice (Japan SLC, Inc.) were used. The test was performed with 29- or 30-days old mice, in order to use each individual whose hair cycle was at the anagen stage. The hair on the back of each of the mice was shaved with a clipper before the starting of administration, and any individual with no bad conditions such as nicks and maculae on the skin was selected, and subjected to grouping based on a group configuration shown in Table 3 by performing a simulation method so that the body weights in respective groups were uniform. Administration (also including preparation) of the test substance and evaluation of body hair were performed separately by respective different experimenters, and such evaluation was performed in a blinded manner. The starting date of administration was set to day 0, and the test substance was administered once daily for 6 days (day 0 to day 5).
The compound was orally administered at a volume of 0.1 mL/10 g (body weight).
NDP-αMSH (control drug): a required amount of compound was weighed as free-form equivalent, and dissolved in Dulbecco's phosphate-buffered saline (PBS) at a concentration of 0.4 mg/mL. The drug was subcutaneously administered at a volume of 0.05 mL/10 g (body weight).
Evaluation and sampling were performed on day 6. The mice were euthanized by cervical dislocation, thereafter subjected to hair shaving of each back with a clipper, and each individual was rated as positive (+) or negative (−) by the degree of darkening of body hair.
A statistical analysis was performed by SAS, and the significance level was 0.05. A 0.5% MC administration group and an NDP-αMSH group were analyzed by Fisher's exact probability test. […] The fixed-order test was performed by Fisher's exact probability test from a higher dose, and, if significant, performing analysis at a lower dose.

Another experiment has as its system skin of healthy subjects. The note with it: FIG. 2.
In experiment [3] the test system is Mouse melanoma derived cell line B16F1 cells. As to the kind of experiment: Melanin production assay in mouse melanoma cell line.
Experimental: The following procedure was used to evaluate the effect of a MC1R agonist on melanin production from mouse melanoma cell lines.
Mouse melanoma derived cell line B16F1 cells were used in measurement of melanin production. B16F1 cells were cultured by using Dulbecco's Modified Eagle Medium (DMEM) containing 10% fetal bovine serum (FBS) and 100 U/mL Penicillin-Streptomycin.
One experiment was performed in triplicate, and three independent experiments were performed.
In consideration of the correspondence of each experiment, the difference in % value from a negative control was determined by performing a two-way Dunnett's test based on each group and the number of experiments as factors. The significance level here was 5% on both sides. Such analysis was performed with SAS.
Experiment [4] has as its system premelanosome protein (PMEL). As to the kind of experiment: Expression of melanin-related gene PMEL in skin, clinical trial in healthy subjects. Type of experiment: in vivo, human. As to conditions: back skin mRNA, next day versus day before administration.
For experiment [5], the system named is cyclobutane pyrimidine dimer (CPD). As to the kind of experiment: UV-A irradiated mouse photoaging model: skin histology, CPD immunostaining. Type of experiment: in vivo. The source says: (§1) Male albino hairless mice (strain name: Hos:HR-1, Hoshino Laboratory Animals Inc.) were used. The mice were divided into groups so that the body weight of each group was homogenous, and from the next day, the dorsal skin of the mice was irradiated with an incremental amount of ultraviolet A at the frequency of five times a week for 8 weeks to induce photoaging in the groups other than the untreated group. The UV-A irradiation schedule was based on the report by Minami et al. (J Nutrition Biochem 2009, 20, 389).
(§2) Compound B: The required amount was weighed as free-form equivalent, and suspended in 0.5% MC to achieve the target concentration, and orally administered at a volume of 0.1 mL/10 g (body weight) at 3 mg/kg once daily for 8 weeks.
(§3) HP-228 (reference control, melanocortin receptor-activating peptide): The required amount of free-form was weighed and dissolved in PBS to achieve the target concentration. 0.1 mL/10 g (body weight) was injected intraperitoneally at 3 mg/kg once daily for 8 weeks.
Skin histological examination (endpoint c): Skin samples were fixed in 10% neutral buffered formalin and paraffin sections were prepared. DNA damage induced by UV-A was detected by enzyme-antibody immunostaining using anti-cyclobutane pyrimidine dimer (CPD) antibody (Cosmo Bio).

The next experiment has as its system type I collagen. As to the kind of experiment: UV-A irradiated mouse photoaging model: type I collagen content in the skin. Type of experiment: in vivo. As to conditions: 3 mg/kg once daily for 8 weeks (compound B oral, HP-228 intraperitoneal); FIG. 4.
Text: as §1, §2, §3
Quantification of type I collagen content in the skin (evaluation item b): Mice were euthanized 8 weeks after UV-A irradiation, and their back skin was collected. Homogenates were prepared by adding acetic acid and pepsin to the collected skin. The amount of collagen in the skin homogenate, which was reduced by UV-A, was measured using the Mouse Collagen Type I ELISA Kit. […]

The test system of experiment [6] is Male albino hairless mice (Hos:HR-1). As to the kind of experiment: UV-A irradiated mouse photoaging model: skin wrinkles by visual observation. Type of experiment: in vivo. As to conditions: 3 mg/kg once daily for 8 weeks (compound B oral, HP-228 intraperitoneal); score 0 to 3; FIG. 3.
Text: as §1, §2, §3
Evaluation of skin wrinkles by visual observation (evaluation item a): The state of skin wrinkles was evaluated on a four-step scale from score 0 (fine wrinkles) to 3 (deep and coarse wrinkles) at a frequency of once a week for 8 weeks after UV-A irradiation.
The skin wrinkle score was tested by Mann-Whitney's U test adjusted for multiplicity, and the significance level was set at 0.05. […]

[7] abbreviates: 0.003 mg/kg p.o. once daily for 6 days.
[8] abbreviates: 0.03 mg/kg p.o. once daily for 6 days.
The mark [9] stands for this setting: 0.3 mg/kg p.o. once daily for 6 days.
[10] abbreviates: 3 mg/kg p.o. once daily for 6 days.
[11] abbreviates: grade + (Slight), dorsal skin, UVA irradiated, 10 animals, 3 mg/kg for 8 weeks.
The mark [12] stands for this setting: grade ± (Minimal), dorsal skin, UVA irradiated, 10 animals, 3 mg/kg for 8 weeks.

The structures appear in SMILES notation. pEC50: −log10 of the molar value. Marks after values point to notes of the source that are not given here.

For orientation: pEC50 means −log10 of the EC50, conventionally taken in molar units. For `COC[C@H]1CN(C(=O)[C@]2(F)CN(C3CCCC3)C[C@H]2c2ccc(OC)cc2)C[C@@H]1c1ccc(C(F)(F)F)cc1N1CCC(C(=O)O)CC1` [Compound A, Cocrystal of 1-{2-[(3S,4R)-1-{[(3R,4R)-1-cyclopentyl-3-fluoro-4-(4-methoxyphenyl)pyrrolidin-3-yl]carbonyl}-4-(methoxymethyl)pyrrolidin-3-yl]-5-(trifluoromethyl)phenyl}piperidine-4-carboxylic acid with phosphoric acid], the “TYRP1 Rate of changes (times)” value in experiment [1] (30 mg single oral dose) worked out at 1.3 times; in experiment [1] (100 mg single oral dose) it was 1.37 times; in experiment [1] (300 mg single oral dose) it was 2.14 times; in experiment [1] (600 mg single oral dose), 2.65 times. Also, the “Number of mice Negative (darkening of body hair)” value stood at 7 in experiment [2] (setting [7]), 7 in experiment [2] (setting [8]), 0 in experiment [2] (setting [9]) and 0 in experiment [2] (setting [10]). Further, the “Number of mice Positive (darkening of body hair)” value in experiment [2] (setting [7]) was 0; in experiment [2] (setting [8]), 0; in experiment [2] (setting [9]) it was 7**; in experiment [2] (setting [10]) it was 7**. Besides, the “increase in melanin density of the skin” value in the experiment on skin of healthy subjects (450 mg orally once daily for 14 days, subjects Fitzpatrick Type V) was “no increase in melanin density”. The “increase in melanin density of the skin: time of maximum” value in the experiment with skin of healthy subjects (150 and 300 mg orally once daily for 14 days) is recorded as “maximum on day 15”. In addition, the melanin production result in experiment [3] (B16F1 cells, 3 days, FIG. 1) was “induced melanin production in a concentration-dependent manner”. Moreover, the pEC50 in experiment [3] (Mus musculus, B16-F1, 72 h, read-out: EC50 value, melanin production) is 10.89. Besides, the “PMEL Rate of changes (times)” value in experiment [4] (30 mg single oral dose) is reported as 1.22 times; in experiment [4] (100 mg single oral dose), 1.77 times; in experiment [4] (300 mg single oral dose), 2.49 times; in experiment [4] (600 mg single oral dose), 3.54 times.
As to `CCO[C@H]1CC[C@H](N2C[C@@H](c3ccc(OC)cc3)[C@](OC)(C(=O)N3C[C@H](c4ccc(C(F)(F)F)cc4N4CCC(C(=O)O)CC4)C[C@H]3COC)C2)CC1.Cl.Cl` (relative stereo) [Compound B, 1-{2-[(3S,5S)-1-[(3R,4R)-1-(trans-4-ethoxycyclohexyl)-3-methoxy-4-(4-methoxyphenyl)pyrrolidin-3-yl]carbonyl}-5-(methoxymethyl)pyrrolidin-3-yl]-5-(trifluoromethyl)phenyl piperidine-4-carboxylic acid, 2 hydrochloride], the “Epidermal CPD staining” value in experiment [5] (3 mg/kg once daily for 8 weeks (compound B oral, HP-228 intraperitoneal)) is given as “tended to be less positive than in the vehicle control group”. Moreover, in experiment [5] (setting [11]), the “Number of animals, CPDs immunostaining, Cells in dermis, grading +” value was 10; the “Number of animals, CPDs immunostaining, Epidermis (cell nuclei), grading +” value came out at 1; the “Number of animals, CPDs immunostaining, Hair follicles in dermis (cell nuclei), grading +” value came to 1; the “Number of animals, CPDs immunostaining, Sebaceous glands (cell nuclei), grading +” value is 9. Further, the “Number of animals, CPDs immunostaining, Epidermis (cell nuclei), grading ++” value in experiment [5] (grade ++ (Moderate), dorsal skin, UVA irradiated, 10 animals, 3 mg/kg for 8 weeks) was found to be 6. In addition, the “Number of animals, CPDs immunostaining, Epidermis (cell nuclei), grading +++” value in experiment [5] (grade +++ (Severe), dorsal skin, UVA irradiated, 10 animals, 3 mg/kg for 8 weeks) is reported as 3. In experiment [5] (setting [12]), the “Number of animals, CPDs immunostaining, Hair follicles in dermis (cell nuclei), grading ±” value is listed as 9; the “Number of animals, CPDs immunostaining, Other tissues (incl. cytoplasm in sebaceous glands), grading ±” value was 10; the “Number of animals, CPDs immunostaining, Sebaceous glands (cell nuclei), grading ±” value was 1. In the experiment with type I collagen, the “amount of type I collagen in the skin” value is given as “significantly higher than that of the vehicle control group”. The skin wrinkle scores result in experiment [6] is given as “lower or tended to be lower than those of the vehicle control group”.

These data come from patent US20230226034A1, “PROPHYLACTIC OR THERAPEUTIC AGENT FOR PHOTODERMATOSIS” (MITSUBISHI TANABE PHARMA CORPORATION, priority 2020, published 2023).
